In ChEMBL document CHEMBL3627608, “Crystal structures of human RIP2 kinase catalytic domain complexed with ATP-competitive inhibitors: Foundations for understanding inhibitor selectivity” (Bioorg Med Chem, 2015):

How the values were obtained:
[1] = molecular target: Interleukin-1 receptor-associated kinase 4 (Homo sapiens) (UniProt Q9NWZ3); test: Inhibition of IRAK4 (unknown origin) at 10 uM after 120 mins P33 radiolabeled kinase activity assay
[2] = molecular target: Serine/threonine-protein kinase VRK2 (Homo sapiens) (UniProt Q86Y07); test: Inhibition of VRK2 (unknown origin) at 10 uM after 120 mins P33 radiolabeled kinase activity assay
[3] = molecular target: Megakaryocyte-associated tyrosine-protein kinase (Homo sapiens) (UniProt P42679); test: Inhibition of CTK (unknown origin) at 10 uM after 120 mins P33 radiolabeled kinase activity assay
[4] = molecular target: Serine/threonine-protein kinase WNK1 (Homo sapiens) (UniProt Q9H4A3); test: Inhibition of WNK1 (unknown origin) at 10 uM after 120 mins P33 radiolabeled kinase activity assay
[5] = molecular target: Serine/threonine-protein kinase Nek7 (Homo sapiens) (UniProt Q8TDX7); test: Inhibition of NEK7 (unknown origin) at 10 uM after 120 mins P33 radiolabeled kinase activity assay
[6] = molecular target: Calcium/calmodulin-dependent protein kinase type II subunit alpha (Homo sapiens) (UniProt Q9UQM7); test: Inhibition of CAMK2alpha (unknown origin) at 10 uM after 120 mins P33 radiolabeled kinase activity assay
[7] = molecular target: Testis-specific serine/threonine-protein kinase 6 (Homo sapiens) (UniProt Q9BXA6); test: Inhibition of SSTK (unknown origin) at 10 uM after 120 mins P33 radiolabeled kinase activity assay
Chain of Testis-specific serine/threonine-protein kinase 6 (Homo sapiens) (Q9BXA6 whole entry): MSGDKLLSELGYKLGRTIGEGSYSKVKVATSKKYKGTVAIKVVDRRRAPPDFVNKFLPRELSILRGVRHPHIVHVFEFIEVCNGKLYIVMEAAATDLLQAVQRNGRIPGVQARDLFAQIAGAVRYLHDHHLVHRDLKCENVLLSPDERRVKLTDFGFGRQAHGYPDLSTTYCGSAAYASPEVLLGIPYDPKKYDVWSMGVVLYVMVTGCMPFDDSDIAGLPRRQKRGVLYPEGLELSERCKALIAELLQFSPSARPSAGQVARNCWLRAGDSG

[8] = molecular target: RAC-gamma serine/threonine-protein kinase (Homo sapiens) (UniProt Q9Y243); test: Inhibition of AKT3 (unknown origin) at 10 uM after 120 mins P33 radiolabeled kinase activity assay
[9] = molecular target: Serine/threonine-protein kinase 3 (Homo sapiens) (UniProt Q13188); test: Inhibition of MST2 (unknown origin) at 10 uM after 120 mins P33 radiolabeled kinase activity assay
Chain of Serine/threonine-protein kinase 3 (Homo sapiens) (Q13188 whole entry): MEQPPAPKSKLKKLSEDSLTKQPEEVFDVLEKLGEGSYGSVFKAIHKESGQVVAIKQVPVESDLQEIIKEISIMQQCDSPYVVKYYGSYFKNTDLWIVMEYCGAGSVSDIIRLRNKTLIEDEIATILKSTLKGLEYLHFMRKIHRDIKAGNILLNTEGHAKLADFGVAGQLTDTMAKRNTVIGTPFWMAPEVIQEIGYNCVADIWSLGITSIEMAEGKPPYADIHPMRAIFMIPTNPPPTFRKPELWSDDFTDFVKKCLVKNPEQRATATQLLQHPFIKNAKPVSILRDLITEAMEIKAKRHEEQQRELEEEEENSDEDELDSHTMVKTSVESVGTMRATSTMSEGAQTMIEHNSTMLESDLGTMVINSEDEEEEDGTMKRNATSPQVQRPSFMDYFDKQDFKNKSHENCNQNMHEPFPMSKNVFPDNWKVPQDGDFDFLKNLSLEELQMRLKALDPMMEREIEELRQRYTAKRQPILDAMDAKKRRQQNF

[10] = molecular target: Tyrosine-protein kinase JAK3 (Homo sapiens) (UniProt P52333); test: Inhibition of JAK3 (unknown origin) at 10 uM after 120 mins P33 radiolabeled kinase activity assay
[11] = molecular target: Serine/threonine-protein kinase 24 (Homo sapiens) (UniProt Q9Y6E0); test: Inhibition of MST3 (unknown origin) at 10 uM after 120 mins P33 radiolabeled kinase activity assay
[12] = molecular target: Serine/threonine-protein kinase tousled-like 1 (Homo sapiens) (UniProt Q9UKI8); test: Inhibition of TLK1 (unknown origin) at 10 uM after 120 mins P33 radiolabeled kinase activity assay
[13] = molecular target: Serine/threonine-protein kinase PAK 1 (Homo sapiens) (UniProt Q13153); test: Inhibition of PAK1 (unknown origin) at 10 uM after 120 mins P33 radiolabeled kinase activity assay
[14] = molecular target: Tau-tubulin kinase 1 (Homo sapiens) (UniProt Q5TCY1); test: Inhibition of TTBK1 (unknown origin) at 10 uM after 120 mins P33 radiolabeled kinase activity assay
[15] = molecular target: Calcium/calmodulin-dependent protein kinase kinase 1 (Homo sapiens) (UniProt Q8N5S9); test: Inhibition of CAMKK1 (unknown origin) at 10 uM after 120 mins P33 radiolabeled kinase activity assay
[16] = molecular target: Casein kinase II subunit alpha' (Homo sapiens) (UniProt P19784); test: Inhibition of CK2alpha2 (unknown origin) at 10 uM after 120 mins P33 radiolabeled kinase activity assay
Chain of Casein kinase II subunit alpha' (Homo sapiens) (P19784 whole entry, looked up): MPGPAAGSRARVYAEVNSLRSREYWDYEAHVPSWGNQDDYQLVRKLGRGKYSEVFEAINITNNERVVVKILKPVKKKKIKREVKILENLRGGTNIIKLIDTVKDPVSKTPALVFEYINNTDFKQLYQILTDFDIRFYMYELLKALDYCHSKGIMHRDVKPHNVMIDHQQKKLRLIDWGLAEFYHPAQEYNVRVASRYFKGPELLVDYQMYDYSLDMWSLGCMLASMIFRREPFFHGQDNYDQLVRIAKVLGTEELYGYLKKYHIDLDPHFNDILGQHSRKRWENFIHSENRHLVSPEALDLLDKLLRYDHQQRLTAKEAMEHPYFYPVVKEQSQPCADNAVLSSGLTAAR

[17] = molecular target: TGF-beta receptor type-2 (Homo sapiens) (UniProt P37173); test: Inhibition of TGFBR2 (unknown origin) at 10 uM after 120 mins P33 radiolabeled kinase activity assay
[18] = molecular target: Bone morphogenetic protein receptor type-2 (Homo sapiens) (UniProt Q13873); test: Inhibition of BMPR2 (unknown origin) at 10 uM after 120 mins P33 radiolabeled kinase activity assay
Chain of Bone morphogenetic protein receptor type-2 (Homo sapiens) (Q13873 whole entry): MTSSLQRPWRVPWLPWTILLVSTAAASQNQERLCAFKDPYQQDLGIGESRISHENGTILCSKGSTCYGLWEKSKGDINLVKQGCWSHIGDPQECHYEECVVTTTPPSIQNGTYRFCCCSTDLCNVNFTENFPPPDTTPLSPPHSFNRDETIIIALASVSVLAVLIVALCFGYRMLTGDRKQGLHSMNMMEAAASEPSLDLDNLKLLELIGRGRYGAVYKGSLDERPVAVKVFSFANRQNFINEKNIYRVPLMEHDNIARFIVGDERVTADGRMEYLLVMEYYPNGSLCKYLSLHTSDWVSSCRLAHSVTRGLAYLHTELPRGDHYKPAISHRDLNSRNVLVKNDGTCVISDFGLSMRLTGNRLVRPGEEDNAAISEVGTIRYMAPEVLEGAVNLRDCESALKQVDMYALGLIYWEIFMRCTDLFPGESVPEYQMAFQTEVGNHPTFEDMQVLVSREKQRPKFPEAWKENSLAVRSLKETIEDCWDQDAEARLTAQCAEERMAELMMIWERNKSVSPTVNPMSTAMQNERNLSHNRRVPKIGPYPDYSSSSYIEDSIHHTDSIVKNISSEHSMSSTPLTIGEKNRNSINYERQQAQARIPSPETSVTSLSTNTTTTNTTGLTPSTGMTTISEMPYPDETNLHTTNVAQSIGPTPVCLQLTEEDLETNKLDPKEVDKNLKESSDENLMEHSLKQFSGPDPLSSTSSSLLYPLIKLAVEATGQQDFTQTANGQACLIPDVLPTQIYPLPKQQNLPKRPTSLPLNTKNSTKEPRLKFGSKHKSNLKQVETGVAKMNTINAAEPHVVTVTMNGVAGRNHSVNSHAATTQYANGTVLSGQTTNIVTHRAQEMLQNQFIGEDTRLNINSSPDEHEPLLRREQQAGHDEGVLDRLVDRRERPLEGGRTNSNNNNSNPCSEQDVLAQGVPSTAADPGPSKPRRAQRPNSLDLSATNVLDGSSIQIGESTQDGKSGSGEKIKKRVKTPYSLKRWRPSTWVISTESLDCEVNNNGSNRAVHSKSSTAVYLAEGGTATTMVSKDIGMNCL

[19] = molecular target: Bone morphogenetic protein receptor type-1B (Homo sapiens) (UniProt O00238); test: Inhibition of ALK6 (unknown origin) at 10 uM after 120 mins P33 radiolabeled kinase activity assay
[20] = molecular target: SRSF protein kinase 3 (Homo sapiens) (UniProt Q9UPE1); test: Inhibition of MSSK1 (unknown origin) at 10 uM after 120 mins P33 radiolabeled kinase activity assay
Chain of SRSF protein kinase 3 (Homo sapiens) (Q9UPE1 whole entry): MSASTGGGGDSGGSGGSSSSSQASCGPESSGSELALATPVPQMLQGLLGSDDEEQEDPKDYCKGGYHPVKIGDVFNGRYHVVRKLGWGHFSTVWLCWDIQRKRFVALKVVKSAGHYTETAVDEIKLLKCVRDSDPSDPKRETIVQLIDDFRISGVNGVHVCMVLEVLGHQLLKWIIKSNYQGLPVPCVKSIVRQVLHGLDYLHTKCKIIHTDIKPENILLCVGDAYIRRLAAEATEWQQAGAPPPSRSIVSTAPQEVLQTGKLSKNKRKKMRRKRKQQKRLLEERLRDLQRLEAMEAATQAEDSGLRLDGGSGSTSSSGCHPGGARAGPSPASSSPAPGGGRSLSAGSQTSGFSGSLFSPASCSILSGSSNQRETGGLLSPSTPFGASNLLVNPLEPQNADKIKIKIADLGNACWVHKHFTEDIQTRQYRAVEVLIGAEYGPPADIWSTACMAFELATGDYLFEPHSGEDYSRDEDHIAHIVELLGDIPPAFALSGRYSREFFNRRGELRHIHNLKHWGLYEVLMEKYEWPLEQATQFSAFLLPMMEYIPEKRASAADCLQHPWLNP

[21] = molecular target: Mitogen-activated protein kinase kinase kinase 21 (Homo sapiens) (UniProt Q5TCX8); test: Inhibition of MLK4 (unknown origin) at 10 uM after 120 mins P33 radiolabeled kinase activity assay
[22] = molecular target: Serine/threonine-protein kinase Sgk2 (Homo sapiens) (UniProt Q9HBY8); test: Inhibition of SGK2 (unknown origin) at 10 uM after 120 mins P33 radiolabeled kinase activity assay
[23] = molecular target: CDK4/Cyclin D3 (Homo sapiens) (UniProt P11802+P30281); test: Inhibition of CDK4/cyclin D3 (unknown origin) at 10 uM after 120 mins P33 radiolabeled kinase activity assay; format: protein-complex assay
[24] = molecular target: Dual specificity mitogen-activated protein kinase kinase 1 (Homo sapiens) (UniProt Q02750); test: Inhibition of MEK1 (unknown origin) at 10 uM after 120 mins P33 radiolabeled kinase activity assay
Chain of Dual specificity mitogen-activated protein kinase kinase 1 (Homo sapiens) (Q02750 whole entry): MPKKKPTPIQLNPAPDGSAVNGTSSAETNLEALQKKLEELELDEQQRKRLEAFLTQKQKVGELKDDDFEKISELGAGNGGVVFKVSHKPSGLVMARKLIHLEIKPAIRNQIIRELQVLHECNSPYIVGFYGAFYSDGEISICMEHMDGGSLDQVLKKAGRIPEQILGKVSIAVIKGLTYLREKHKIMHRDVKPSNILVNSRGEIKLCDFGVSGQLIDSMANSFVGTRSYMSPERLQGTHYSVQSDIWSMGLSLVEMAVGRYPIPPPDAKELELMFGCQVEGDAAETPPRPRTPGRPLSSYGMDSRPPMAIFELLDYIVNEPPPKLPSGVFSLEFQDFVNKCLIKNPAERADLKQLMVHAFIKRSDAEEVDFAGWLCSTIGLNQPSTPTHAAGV

[25] = molecular target: Mitogen-activated protein kinase kinase kinase 3 (Homo sapiens) (UniProt Q99759); test: Inhibition of MEKK3 (unknown origin) at 10 uM after 120 mins P33 radiolabeled kinase activity assay
[26] = molecular target: Activin receptor type-1B (Homo sapiens) (UniProt P36896); test: Inhibition of ALK4 (unknown origin) at 10 uM after 120 mins P33 radiolabeled kinase activity assay
[27] = molecular target: LIM domain kinase 2 (Homo sapiens) (UniProt P53671); test: Inhibition of LIMK2 (unknown origin) at 10 uM after 120 mins P33 radiolabeled kinase activity assay
[28] = molecular target: Mitogen-activated protein kinase 10 (Homo sapiens) (UniProt P53779); test: Inhibition of JNK3 (unknown origin) at 10 uM after 120 mins P33 radiolabeled kinase activity assay
[29] = molecular target: Dual specificity mitogen-activated protein kinase kinase 4 (Homo sapiens) (UniProt P45985); test: Inhibition of MKK4 (unknown origin) at 10 uM after 120 mins P33 radiolabeled kinase activity assay
[30] = molecular target: Cyclin-Y/Cyclin-dependent kinase 16 (Homo sapiens) (UniProt Q00536+Q8ND76); test: Inhibition of CDK16/cyclin Y (unknown origin) at 10 uM after 120 mins P33 radiolabeled kinase activity assay; format: protein-complex assay
[31] = molecular target: Protein kinase C theta type (Homo sapiens) (UniProt Q04759); test: Inhibition of PKCtheta (unknown origin) at 10 uM after 120 mins P33 radiolabeled kinase activity assay
[32] = molecular target: Calcium/calmodulin-dependent protein kinase kinase 2 (Homo sapiens) (UniProt Q96RR4); test: Inhibition of CAMKK2 (unknown origin) at 10 uM after 120 mins P33 radiolabeled kinase activity assay
Chain of Calcium/calmodulin-dependent protein kinase kinase 2 (Homo sapiens) (Q96RR4 2-588 limits assumed): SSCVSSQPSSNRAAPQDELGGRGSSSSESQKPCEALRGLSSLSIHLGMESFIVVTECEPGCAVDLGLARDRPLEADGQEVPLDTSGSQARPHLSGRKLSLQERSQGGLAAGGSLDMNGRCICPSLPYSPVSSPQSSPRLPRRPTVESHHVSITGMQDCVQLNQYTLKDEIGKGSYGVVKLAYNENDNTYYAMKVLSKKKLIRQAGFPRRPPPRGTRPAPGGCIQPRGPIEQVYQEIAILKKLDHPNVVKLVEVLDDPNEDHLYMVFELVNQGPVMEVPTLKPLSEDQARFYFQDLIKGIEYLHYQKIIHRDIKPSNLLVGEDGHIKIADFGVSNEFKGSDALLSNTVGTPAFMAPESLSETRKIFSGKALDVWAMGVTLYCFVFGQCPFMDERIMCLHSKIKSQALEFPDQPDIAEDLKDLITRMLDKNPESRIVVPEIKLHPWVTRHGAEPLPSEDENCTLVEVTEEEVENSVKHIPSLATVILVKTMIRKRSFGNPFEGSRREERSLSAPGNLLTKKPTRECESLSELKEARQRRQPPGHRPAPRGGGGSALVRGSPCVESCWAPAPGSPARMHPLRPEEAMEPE

[33] = molecular target: Rho-associated protein kinase 1 (Homo sapiens) (UniProt Q13464); test: Inhibition of ROCK1 (unknown origin) at 10 uM after 120 mins P33 radiolabeled kinase activity assay
Chain of Rho-associated protein kinase 1 (Homo sapiens) (Q13464 2-1354 limits assumed): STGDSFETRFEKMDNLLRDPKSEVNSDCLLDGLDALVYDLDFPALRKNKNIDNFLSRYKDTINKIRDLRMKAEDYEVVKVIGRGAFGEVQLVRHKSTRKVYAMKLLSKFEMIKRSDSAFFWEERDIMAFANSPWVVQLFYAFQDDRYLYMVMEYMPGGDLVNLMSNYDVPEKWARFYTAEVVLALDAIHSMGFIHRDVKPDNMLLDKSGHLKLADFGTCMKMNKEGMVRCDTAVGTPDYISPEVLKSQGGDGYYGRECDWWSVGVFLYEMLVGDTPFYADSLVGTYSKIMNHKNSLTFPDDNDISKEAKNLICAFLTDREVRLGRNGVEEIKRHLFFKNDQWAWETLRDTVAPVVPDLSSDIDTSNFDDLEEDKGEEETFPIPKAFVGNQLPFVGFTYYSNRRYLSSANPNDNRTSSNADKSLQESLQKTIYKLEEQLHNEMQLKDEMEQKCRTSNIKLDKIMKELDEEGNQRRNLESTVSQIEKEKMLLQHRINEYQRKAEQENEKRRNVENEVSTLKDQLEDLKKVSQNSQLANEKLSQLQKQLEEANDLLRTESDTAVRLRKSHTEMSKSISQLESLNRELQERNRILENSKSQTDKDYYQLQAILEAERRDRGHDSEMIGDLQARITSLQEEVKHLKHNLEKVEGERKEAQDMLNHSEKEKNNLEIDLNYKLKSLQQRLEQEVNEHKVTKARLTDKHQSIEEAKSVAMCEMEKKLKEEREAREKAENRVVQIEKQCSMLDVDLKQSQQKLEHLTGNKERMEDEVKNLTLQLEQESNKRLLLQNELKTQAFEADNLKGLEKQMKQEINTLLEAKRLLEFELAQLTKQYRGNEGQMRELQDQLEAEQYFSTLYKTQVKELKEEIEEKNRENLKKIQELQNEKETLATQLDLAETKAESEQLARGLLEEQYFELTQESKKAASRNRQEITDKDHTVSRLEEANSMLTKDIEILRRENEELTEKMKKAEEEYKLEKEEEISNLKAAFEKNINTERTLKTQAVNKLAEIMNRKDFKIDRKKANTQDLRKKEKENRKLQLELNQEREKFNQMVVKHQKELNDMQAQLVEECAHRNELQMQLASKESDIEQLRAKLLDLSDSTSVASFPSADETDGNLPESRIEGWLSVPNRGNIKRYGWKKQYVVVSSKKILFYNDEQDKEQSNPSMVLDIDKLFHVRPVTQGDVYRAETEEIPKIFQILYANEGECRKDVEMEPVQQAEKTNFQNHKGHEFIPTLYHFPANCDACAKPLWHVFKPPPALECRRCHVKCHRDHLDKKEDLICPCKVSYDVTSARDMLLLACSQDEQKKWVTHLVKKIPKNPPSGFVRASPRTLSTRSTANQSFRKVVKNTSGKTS

[34] = molecular target: Mitogen-activated protein kinase 7 (Homo sapiens) (UniProt Q13164); test: Inhibition of ERK5 (unknown origin) at 10 uM after 120 mins P33 radiolabeled kinase activity assay

Compound	inhibition [1] [%]	inhibition [2] [%]	inhibition [4] [%]	inhibition [5] [%]	inhibition [6] [%]	inhibition [7] [%]	inhibition [8] [%]	inhibition [9] [%]	inhibition [10] [%]	inhibition [12] [%]	inhibition [13] [%]	inhibition [14] [%]	inhibition [15] [%]	inhibition [16] [%]	inhibition [18] [%]	inhibition [20] [%]	inhibition [22] [%]	inhibition [23] [%]	inhibition [24] [%]	inhibition [27] [%]	other results
COCCNC(=O)c1ccc2c(c1)nc(-c1cnc(-c3ccc(Cl)cc3)[nH]1)n2CCOC	13.9	-4.56	8.03	6.02	-3.57	-0.51	6.03	-5.33	-7.14	-7.05	5.25	7.91	-7.72	-7.82	–	–	–	–	–	–	inhibition [3]: 10.8%; inhibition [11]: 23.8%
CS(=O)(=O)c1cccc(Nc2nccc(-c3sc(N4CCOCC4)nc3-c3cccc(NS(=O)(=O)c4c(F)cccc4F)c3)n2)c1	–	–	–	33.7	-6.79	–	6.38	–	15.9	-4.48	56.5	–	–	39.8	19.6	-1.37	50	26.6	72.5	99.1	inhibition [17]: 96.6%; inhibition [19]: 92.8%; inhibition [21]: 49.7%; inhibition [25]: 9.88%; inhibition [26]: 42.4%; inhibition [28]: -7.87%; inhibition [29]: 19.4%; inhibition [30]: 92%; inhibition [31]: -5.48%; inhibition [32]: -1.4%; inhibition [33]: -6.9%
CC(C)(C)c1cc(NC(=O)Nc2ccc(Oc3ccncc3)cc2)no1	24.7	-5.34	5.52	–	–	7.1	–	-4.9	–	–	–	8.16	60.5	–	6.56	85	15.5	92.5	22	53.8	inhibition [34]: -8.59%; inhibition [29]: 1.14%; inhibition [30]: 84.5%; inhibition [32]: 54.2%; inhibition [33]: 9.07%
